BindingDB's records for doi:10.1021/jm0104062 (Louis Pasteur University, 2002)

Target: P2Y purinoceptor 1 (Homo sapiens, UniProt P47900)
Assay: pA2 value was evaluated against P2Y purinoceptor 1

Sequence of P2Y purinoceptor 1 (P47900 whole entry): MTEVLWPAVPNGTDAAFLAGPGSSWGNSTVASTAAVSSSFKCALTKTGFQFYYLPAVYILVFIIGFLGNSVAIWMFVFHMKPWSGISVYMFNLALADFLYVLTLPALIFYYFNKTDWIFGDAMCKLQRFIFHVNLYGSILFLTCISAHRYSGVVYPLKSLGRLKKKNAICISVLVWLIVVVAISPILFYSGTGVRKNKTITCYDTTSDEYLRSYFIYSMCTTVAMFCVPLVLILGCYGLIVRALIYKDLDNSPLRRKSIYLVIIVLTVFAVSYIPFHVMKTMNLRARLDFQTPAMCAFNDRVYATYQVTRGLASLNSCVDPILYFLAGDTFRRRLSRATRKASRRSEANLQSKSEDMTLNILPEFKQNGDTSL

Compound `CNc1nc(C)nc2c1ncn2C1CC(OP(=O)(O)O)C(COP(=O)(O)O)O1` (stereo unspecified) has a Kd of 77.6 nM.
